US6605644B2, “Analgesic regimen” (Ortho-McNeil Pharmaceutical, Inc., priority 1999, dated 2003)
Counter-ions that a name gives are not always drawn.

Key:
[1] = cited from earlier work; for peak plasma concentration: mean±standard deviation
[2] = cited from earlier work
[3] = Example 2: open-label run-in and double-blind study of 10-, 16- or 13-day titration in subjects with chronic pain
[4] = Example 1: randomized double-blind study of 1-, 4- or 10-day titration to 200 mg/day in patients with chronic joint pain; assay type: in vivo; conditions: 10-day titration group (50 mg increments every 3 days to 200 mg/day) compared with 1-day and 4-day titration groups, 14 days
Experimental: A total of 465 patients with chronic joint pain were enrolled in the study and randomized into one of four treatment groups for 14 days. Patients continued on their prestudy dose of NSAIDs while concurrently receiving tramadol or placebo. Tramadol groups were titrated at three different rates to achieve the study target dose of 200 mg/day. […] Discontinuation due to any adverse event was similarly analyzed. If the trend was statistically significant, pairwise comparisons were performed to determine the statistical significance between titration rates.
The study protocol was approved by an Institutional Review Board at each study site and informed consent regarding the risks and benefits of participation was obtained for all patients.
Patients with chronic joint pain who had been receiving a maintenance dose (±25%) of NSAID for at least 30 days, and who required additional pain relief, were randomized into three titration groups and a placebo group using a 2:2:2:1 randomization schedule. […]

μ opioid receptors = μ opioid receptors (Homo sapiens, UniProt P35372); conditions: cited from earlier work
[5] = single 100 mg oral dose, healthy subjects
[6] = double-blind phase, 10-day titration group
[7] = double-blind phase, 13-day titration group
[8] = double-blind phase, 16-day titration group

Chain of μ opioid receptors (P35372 whole entry): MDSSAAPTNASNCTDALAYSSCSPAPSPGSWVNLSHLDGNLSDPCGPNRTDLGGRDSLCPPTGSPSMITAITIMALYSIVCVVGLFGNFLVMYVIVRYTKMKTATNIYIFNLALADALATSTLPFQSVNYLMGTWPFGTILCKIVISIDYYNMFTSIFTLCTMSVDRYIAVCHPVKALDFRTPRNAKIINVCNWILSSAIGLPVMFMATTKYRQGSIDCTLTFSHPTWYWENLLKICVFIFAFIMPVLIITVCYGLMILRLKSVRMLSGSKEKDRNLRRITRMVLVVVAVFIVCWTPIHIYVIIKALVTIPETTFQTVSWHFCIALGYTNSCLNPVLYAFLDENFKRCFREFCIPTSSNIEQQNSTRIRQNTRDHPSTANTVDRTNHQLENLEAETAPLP

SMILES	peak plasma concentration [1, 5]	terminal plasma elimination half-life [1, 5]	time of peak plasma concentration after administration [1, 5]	absorption after oral administration ([1]; oral administration)	bound to plasma proteins [2]	median time to discontinuation due to any adverse event [3, 6]	median time to discontinuation due to nausea and/or vomiting [3, 6]	mean reduction from baseline PVA scores ([3]; double-blind phase, 10-day titration group (200 mg/day))	median time to discontinuation due to any adverse event [3, 7]	median time to discontinuation due to nausea and/or vomiting [3, 7]	mean reduction from baseline PVA scores ([3]; double-blind phase, 13-day titration group (150 mg/day))	median time to discontinuation due to any adverse event [3, 8]	median time to discontinuation due to nausea and/or vomiting [3, 8]	mean reduction from baseline PVA scores ([3]; double-blind phase, 16-day titration group (200 mg/day))	mean reduction from baseline PVA scores ([3]; open-label/run-in phase, titrated to 200 mg/day over four days)	advantage in cumulative proportion of subjects who discontinued due to nausea and/or vomiting ([3]; titration to 200 mg/day over 10 days versus over 16 days)	discontinuations due to dizziness and/or vertigo, nausea and/or vomiting, and any other adverse event [4]	binding affinity to μ receptors (μ opioid receptors)
CN(C)C[C@H]1CCCC[C@]1(O)c1cccc(O)c1 [mono-O-desmethyl tramadol, mono-O-desmethyltramadol]	55 ± 20 ng/mL	7.4 ± 1.4 h	approximately three															
COc1cccc(C2(O)CCCCC2CN(C)C)c1 (centres unmarked) [tramadol hydrochloride, 2-[(dimethylamino)methyl]-1-(3-methoxyphenyl)cyclohexanol]	308 ± 78 ng/mL		two	rapidly and almost completely absorbed	20.2%	9.0 days	9.0 days	1.4 cm	6.5 days	5.5 days	1.6 cm	6.0 days	4.0 days	1.5 cm	2.1 cm	20 percentage	fewest discontinuations	low-affinity binding
